# Test results reported in ChEMBL document CHEMBL5375961, “Design, Synthesis, and Biological Evaluation of Trisubstituted Piperazine Derivatives as Noncovalent Severe Acute Respiratory Syndrome Coronavirus 2 Main Protease Inhibitors with Improved Antiviral Activity and Favorable Druggability” (J Med Chem, 2023).
# pEC50, pIC50: −log10 of the molar value.
# Tests used:
# SARS-CoV-2 [1] = assay: Antiviral activity against wild-type SARS CoV-2 infected in African green monkey Vero E6 cells assessed as reduction in viral plaque incubated for 3 days; format: functional, organism-based; conditions: Severe acute respiratory syndrome coronavirus 2, Vero C1008, 72 h
# SARS-CoV-2 [2] = assay: Antiviral activity against SARS CoV-2 Delta infected in African green monkey Vero E6 cells assessed as reduction in viral plaque incubated for 3 days; format: functional, organism-based; conditions: Severe acute respiratory syndrome coronavirus 2, Delta, Vero C1008, 72 h
# SARS-CoV-2 [3] = assay: Antiviral activity against SARS CoV-2 Alpha infected in African green monkey Vero E6 cells assessed as reduction in viral plaque incubated for 3 days; format: functional, organism-based; conditions: Severe acute respiratory syndrome coronavirus 2, Alpha, Vero C1008, 72 h
# SARS-CoV-2 [4] = assay: Antiviral activity against SARS-CoV-2 infected in African green monkey Vero E6 cells assessed as reduction in viral replication preincubated with compound followed by viral infection for 1 hr measured after 25 to 26 hrs by ELISA; format: functional, organism-based, Severe acute respiratory syndrome coronavirus 2
# Vero C1008 = assay: (§1) Cytotoxicity in African green monkey Vero E6 cells […] by Neutral red release assay; format: toxicity, cell-based; conditions: chlorocebus sabaeus, vero c1008, 600 h; 600 h
# SARS-CoV-2 [5] = assay: Antiviral activity against SARS CoV-2 Omicron […] infected in African green monkey Vero E6 cells assessed as reduction in viral plaque incubated for 3 days; format: functional, organism-based; conditions: Severe acute respiratory syndrome coronavirus 2, Vero C1008, 72 h
# [6] = target: Replicase polyprotein 1ab (Severe acute respiratory syndrome coronavirus 2, UniProt P0DTD1); assay: Inhibition of SARS CoV-2 MPro using MCA-AVLQSGFR-Lys(Dnp)-Lys-NH2 as substrate preincubated for 10 mins followed by substrate addition measured for 10 mins by FRET assay
# [7] = as §1; format: toxicity, cell-based, Vero C1008; conditions: chlorocebus sabaeus, Vero E6 cells
# [8] = Half life in Sprague-Dawley rat at 10 mg/kg, po measured for 0.083 to 24 hrs by LC-MS/MS analysis; format: ADME, organism-based; conditions: in vivo, time 0.083-24 hrs
# [9] = AUC (0 to infinity) in Sprague-Dawley rat at 2 mg/kg, iv measured for 0.033 to 24 hrs by LC-MS/MS analysis; format: ADME, organism-based; design: time 0.033-24 hrs, dose 2 mg/kg, route iv; conditions: in vivo
# [10] = Volume of distribution in Sprague-Dawley rat at 2 mg/kg, iv measured for 0.033 to 24 hrs by LC-MS/MS analysis; format: ADME, organism-based; conditions: in vivo, time 0.033-24 hrs
# [11] = Half life in Sprague-Dawley rat at 2 mg/kg, iv measured for 0.033 to 24 hrs by LC-MS/MS analysis; format: ADME, organism-based; conditions: in vivo, time 0.033-24 hrs
# [12] = AUC (0 to t) in Sprague-Dawley rat at 10 mg/kg, po measured for 0.083 to 24 hrs by LC-MS/MS analysis; format: ADME, organism-based; design: time 0.083-24 hrs, dose 10 mg/kg, route po; conditions: in vivo
# [13] = AUC (0 to t) in Sprague-Dawley rat at 2 mg/kg, iv measured for 0.033 to 24 hrs by LC-MS/MS analysis; format: ADME, organism-based; design: time lower 0.033 hrs, dose 2 mg/kg, time upper 24 hrs, route iv; conditions: in vivo
# [14] = AUC (0 to infinity) in Sprague-Dawley rat at 10 mg/kg, po measured for 0.083 to 24 hrs by LC-MS/MS analysis; format: ADME, organism-based; design: time 0.083-24 hrs, dose 10 mg/kg, route po; conditions: in vivo
# [15] = Cmax in Sprague-Dawley rat at 10 mg/kg, po measured for 0.083 to 24 hrs by LC-MS/MS analysis; format: ADME, organism-based; design: time lower 0.083 hrs, dose 10 mg/kg, time upper 24 hrs, route po; conditions: in vivo
# [16] = Tmax in Sprague-Dawley rat at 10 mg/kg, po measured for 0.083 to 24 hrs by LC-MS/MS analysis; format: ADME, organism-based; conditions: in vivo, time 0.083-24 hrs
# [17] = Tmax in Sprague-Dawley rat at 2 mg/kg, iv measured for 0.033 to 24 hrs by LC-MS/MS analysis; format: ADME, organism-based; conditions: in vivo, time 0.033-24 hrs
# [18] = Cmax in Sprague-Dawley rat at 2 mg/kg, iv measured for 0.033 to 24 hrs by LC-MS/MS analysis; format: ADME, organism-based; design: time upper 24 hrs, dose 2 mg/kg, time lower 0.033 hrs, route iv; conditions: in vivo
# [19] = Oral bioavailability in Sprague-Dawley rat at 10 mg/kg measured for 0.083 to 24 hrs by LC-MS/MS analysis; format: ADME, organism-based; conditions: in vivo, time 0.083-24 hrs
# [20] = Clearance in Sprague-Dawley rat at 2 mg/kg, iv measured for 0.033 to 24 hrs by LC-MS/MS analysis; format: ADME, organism-based; conditions: in vivo, time 0.033-24 hrs
# SARS-CoV-2 [21] = assay: Antiviral activity against SARS-CoV-2 USA_WA1/2020 infected in African green monkey Vero E6 cells expressing hACE2 assessed as reduction in virus-induced cytopathic effect incubated for 3 days in presence of P-gp efflux inhibitor by Cell Titer-Glo assay; format: functional, organism-based; conditions: Severe acute respiratory syndrome coronavirus 2, USA_WA1/2020, Vero C1008, 72 h
# [22] = Severe acute respiratory syndrome coronavirus 2, Vero C1008
SMILES,pIC50 [6],pEC50 (SARS-CoV-2 [4]; [22]),CC50 at 600 h [7] [nM],other results
O=C(NCc1cccs1)[C@@H]1CN(C(=O)c2cncc3cc[nH]c23)CCN1c1ccc(Cl)c(Cl)c1 [listing 1 of 2 here],6.68,,,pEC50 (SARS-CoV-2 [1]): 6.62; pEC50 (SARS-CoV-2 [2]): 6.66; pEC50 (SARS-CoV-2 [3]): 6.89; pEC50 (SARS-CoV-2 [4]; vero e6): 6.28; CC50 (Vero C1008): 42000 nM; pEC50 (SARS-CoV-2 [5]): 7.10
O=C(NCc1cccs1)[C@@H]1CN(C(=O)c2cc(=O)[nH]c3ccccc23)CCN1c1ccc(Cl)c(Cl)c1,6.57,5.27,> 100000,
COc1ccncc1C(=O)N1CCN(c2ccc(Cl)c(Cl)c2)[C@H](C(=O)NCc2cccs2)C1,,6.11,> 100000,
O=C(NCc1ccc(Br)s1)[C@@H]1CN(C(=O)c2cccnc2)CCN1c1ccc(Cl)c(Cl)c1,5.74,,,
CN(Cc1cccs1)C(=O)[C@@H]1CN(C(=O)c2cccnc2)CCN1c1ccc(Cl)c(Cl)c1,5.89,,,
COc1ccc(NC(=O)[C@@H]2CN(C(=O)c3cccnc3)CCN2c2ccc(Cl)c(Cl)c2)cc1,6.70,6.13,95000,
COc1ccncc1C(=O)N1CCN(c2ccc(Cl)c(Cl)c2)[C@H](C(=O)Nc2cc(F)c(OC)c(F)c2)C1,6.37,5.51,,
O=C(NS(=O)(=O)c1cccs1)[C@@H]1CN(C(=O)c2cccnc2)CCN1c1ccc(Cl)c(Cl)c1,5.02,,,
COc1ccncc1C(=O)N1CCN(c2ccc(Cl)c(Cl)c2)[C@H](C(=O)NCc2cccs2)C1.Cl,6.77,,,half-life [8]: 86.4 min; AUC(0-inf) [9]: 431 ng·h/mL; Vd [10]: 2.07 L/kg; half-life [11]: 18.6 min; AUC(0-t) [12]: 202 ng·h/mL; pEC50 (SARS-CoV-2 [4]; vero e6): 6.28; AUC(0-t) [13]: 428 ng·h/mL; AUC(0-inf) [14]: 226 ng·h/mL; Cmax [15]: 81.6 ng/mL; Tmax [16]: 30 min; Tmax [17]: 1.8 min; Cmax [18]: 1240 ng/mL; bioavailability [19]: 10.5%; clearance [20]: 77.4 mL/min/kg
O=C(NCc1cccs1)[C@@H]1CN(C(=O)c2cncc3cc[nH]c23)CCN1c1ccc(Cl)c(Cl)c1 [listing 2 of 2 here],6.60,6.27,36000,
COc1ccncc1C(=O)N1CCN(c2ccc(Cl)c(Cl)c2)[C@H](C(=O)NCc2ccc(F)s2)C1 [listing 1 of 2 here],6.39,5.82,> 100000,
O=C(NCc1cccs1)[C@@H]1CN(C(=O)c2cncc(F)c2)CCN1c1ccc(Cl)c(Cl)c1,6.46,5.82,> 100000,
O=C(NCc1ccc(F)s1)[C@@H]1CN(C(=O)c2cccnc2)CCN1c1ccc(Cl)c(Cl)c1,6.40,5.82,79000,
COc1cc(OC)c(NC(=O)[C@@H]2CN(C(=O)c3cnccc3OC)CCN2c2ccc(Cl)c(Cl)c2)cc1F,6.40,5.82,79000,
COc1cccc2[nH]c(C(=O)N[C@@H](CC(C)C)C(=O)N[C@H](C[C@@H]3CCNC3=O)C(=O)CO)cc12,,,,pEC50 (SARS-CoV-2 [21]): 6.66
O=C(NCc1cccs1)[C@@H]1CN(C(=O)c2cnccc2Cl)CCN1c1ccc(Cl)c(Cl)c1,6.49,5.51,> 100000,
O=C(NCc1cccs1)[C@@H]1CN(C(=O)c2cccnc2)CCN1c1ccc(Cl)c(Cl)c1,,5.89,100000,
CC(C)(C)[C@H](NC(=O)C(F)(F)F)C(=O)N1C[C@H]2[C@@H]([C@H]1C(=O)N[C@H](C#N)C[C@@H]1CCNC1=O)C2(C)C,,,> 100000,
O=C(NCc1cccs1)[C@@H]1CN(C(=O)c2cncc(O)c2)CCN1c1ccc(Cl)c(Cl)c1,6.36,4.82,,
COc1ccncc1C(=O)N1CCN(c2ccc(Cl)c(Cl)c2)[C@H](C(=O)NCc2ccc(F)s2)C1 [listing 2 of 2 here],6.46,,,pEC50 (SARS-CoV-2 [4]; vero e6): 5.85; CC50 (Vero C1008): 100000 nM
COc1ccncc1C(=O)N1CCN(c2ccc(Cl)c(Cl)c2)[C@H](C(=O)Nc2ccc(OC(F)F)cc2)C1,6.32,,,
